Measurements published in patent US20160113921A1, “COMBINATION THERAPY COMPRISING OXAZOLIDINONE-QUINOLONES FOR USE IN TREATING BACTERIAL INFECTIONS” (MORPHOCHEM AKTIENGESELLSCHAFT FÜR KOMBINATORISCHE CHEMIE, priority 2013, published 2016).
≈ marks a conversion by molar mass, not a printed value. Where two headings read alike, the source gives them in different places.

Key:
Assay type in all cases: cell-based
[1] = tested on: Gram-positive strains tested; experiment: MIC testing, statements on the Gram-positive strain panel; details: read-out: MIC (inhibitory concentration)
From the text: (§1) MIC-testing was done immediately after preparation of the dilutions. All tests were done in duplicate and repeated once on a separate occasion.

[2] = tested on: E. faecium UW 3695 (linezolid and quinolone-resistant); experiment: MIC, broth microdilution (CLSI), CAMHB; details: Enterococcus faecium
Method: as §1
(§2) 1 mL of the bacterial suspension was transferred into a tube containing 10 mL CAMHB and was vortexed thoroughly. (S. pneumoniae 1 mL in 10 mL CAMHB+5% lysed horse blood). Columns 1-15 of the 96-well plate were inoculated with 5 μL of this suspension (1-15=antibacterial solution, 16=sterile medium without test item).
(§3) Turbidity was read visually with a mirror.

E. faecalis ATCC 29212 = experiment: MIC, broth microdilution (CLSI), CAMHB; details: Enterococcus faecalis
Method: as §1, §2, §3

S. pneumoniae ATCC 33400 = experiment: MIC, broth microdilution (CLSI), CAMHB; details: Streptococcus pneumoniae
Method: as §1, §2, §3

[3] = tested on: S. aureus Visa Mu 50 (MRSA, vancomycin intermediate susceptible); experiment: MIC, broth microdilution (CLSI), CAMHB; details: Staphylococcus aureus
Method: as §1, §2, §3

[4] = tested on: S. aureus NRS-119 (MRSA, linezolid- and quinolone-resistant); experiment: MIC, broth microdilution (CLSI), CAMHB; details: Staphylococcus aureus
Method: as §1, §2, §3

[5] = tested on: S. aureus ATCC 33593 (MRSA); experiment: MIC, broth microdilution (CLSI), CAMHB; details: Staphylococcus aureus
Method: as §1, §2, §3

S. aureus ATCC 29213 = experiment: MIC, broth microdilution (CLSI), CAMHB; details: Staphylococcus aureus
Method: as §1, §2, §3

E. faecalis V583 (VanB) = experiment: MIC, broth microdilution (CLSI), CAMHB; details: Enterococcus faecalis
Method: as §1, §2, §3

[6] = tested on: S. pneumoniae BAY 19397 (penicillin-, macrolide-, quinolone-resistant); experiment: MIC, broth microdilution (CLSI), CAMHB; details: Streptococcus pneumoniae
Method: as §1, §2, §3

E. faecium DSMZ 2146 = experiment: MIC, broth microdilution (CLSI), CAMHB; details: Enterococcus faecium
Method: as §1, §2, §3

[7] = tested on: S. aureus DSM 11823, clone 16 (MSSA, quinolone-resistant); experiment: microbe, parasite or virus in culture; details: Staphylococcus aureus
Method: as §1, §2, §3

[8] = tested on: E. coli NRZ-00302 (metallo β-lactamase NDM-1); experiment: MIC, broth microdilution (CLSI), CAMHB; details: Escherichia coli
Method: as §1, §2, §3

[9] = tested on: E. coli NRZ-00401 (metallo β-lactamase VIM-1); experiment: MIC, broth microdilution (CLSI), CAMHB; details: Escherichia coli
Method: as §1, §2, §3

[10] = tested on: E. coli GNS-2601 (ESBL CTX-M-15); experiment: MIC, broth microdilution (CLSI), CAMHB; details: Escherichia coli
Method: as §1, §2, §3

[11] = tested on: K. pneumoniae NRZ-00002 (OXA-48); experiment: MIC, broth microdilution (CLSI), CAMHB; details: Klebsiella pneumoniae
Method: as §1, §2, §3

K. pneumoniae ATCC 13883 = experiment: MIC, broth microdilution (CLSI), CAMHB; details: Klebsiella pneumoniae
Method: as §1, §2, §3

[12] = tested on: K. pneumoniae NRZ-00103 (KPC-2); experiment: MIC, broth microdilution (CLSI), CAMHB; details: Klebsiella pneumoniae
Method: as §1, §2, §3

P. aeruginosa ATCC 10145 = experiment: MIC, broth microdilution (CLSI), CAMHB; details: Pseudomonas aeruginosa
Method: as §1, §2, §3

[13] = tested on: P. aeruginosa NRZ-00425 (VIM-1); experiment: MIC, broth microdilution (CLSI), CAMHB; details: Pseudomonas aeruginosa
Method: as §1, §2, §3

P. mirabilis ATCC 9240 = experiment: MIC, broth microdilution (CLSI), CAMHB; details: Proteus mirabilis
Method: as §1, §2, §3

[14] = tested on: P. mirabilis NRZ-00185 (AmpC, type CMY-2); experiment: MIC, broth microdilution (CLSI), CAMHB; details: Proteus mirabilis
Method: as §1, §2, §3

E. coli ATCC 25922 = experiment: MIC, broth microdilution (CLSI), CAMHB; details: Escherichia coli
Method: as §1, §2, §3

E. cloacae ATCC 13047 = experiment: MIC, broth microdilution (CLSI), CAMHB; details: Enterobacter cloacae
Method: as §1, §2, §3

[15] = tested on: K. pneumoniae NRZ-00535 (VIM-1); experiment: MIC, broth microdilution (CLSI), CAMHB; details: Klebsiella pneumoniae
Method: as §1, §2, §3

[16] = tested on: E. cloacae NRZ-00239 (VIM-1); experiment: MIC, broth microdilution (CLSI), CAMHB; details: Enterobacter cloacae
Method: as §1, §2, §3

[17] = tested on: Gram-negative test strains (Enterobacteriaceae, non-fermenters); experiment: MIC testing, statements on the Gram-negative strain panel
From the text: as §1

[18] = monosubstance, Efc UW3695, read-out: MIC
[19] = monosubstance, Ef ATCC29212, read-out: MIC
[20] = monosubstance, Spn ATCC33400, read-out: MIC
[21] = monosubstance, Sa VisaMu50, read-out: MIC
[22] = monosubstance, Sa NRS119, read-out: MIC
[23] = monosubstance, Sa ATCC33593, read-out: MIC
[24] = monosubstance, Sa ATCC29213, read-out: MIC
[25] = monosubstance, Ef V583, read-out: MIC
[26] = monosubstance, Spn 19397, read-out: MIC
[27] = monosubstance, Efc DSMZ2146, read-out: MIC

Structure (SMILES)	MIC [2, 18]	MIC (E. faecalis ATCC 29212; [19])	MIC (S. pneumoniae ATCC 33400; [20])	MIC [3, 21]	MIC [4, 22]	MIC [5, 23]	MIC (S. aureus ATCC 29213; [24])	MIC (E. faecalis V583 (VanB); [25])	MIC [6, 26]	MIC (E. faecium DSMZ 2146; [27])	MIC [7]	MIC [2]	MIC (E. faecalis ATCC 29212; ATCC29212)	MIC (S. pneumoniae ATCC 33400; ATCC33400)	MIC [3]	MIC [4]	MIC [5]	MIC (S. aureus ATCC 29213; ATCC29213)	MIC (E. faecalis V583 (VanB))	MIC [6]	further results
CC(=O)NC[C@H]1CN(c2ccc(N3CCOCC3)c(F)c2)C(=O)O1 [linezolid]	16 µg/mL (≈ 47.4 µM)	4 µg/mL (≈ 11.9 µM)	2 µg/mL (≈ 5.93 µM)	4 µg/mL (≈ 11.9 µM)	64 µg/mL (≈ 190 µM)	2 µg/mL (≈ 5.93 µM)	2 µg/mL (≈ 5.93 µM)	2 µg/mL (≈ 5.93 µM)	1 µg/mL (≈ 2.96 µM)	4 µg/mL (≈ 11.9 µM)	2 µg/mL (≈ 5.93 µM)	–	–	–	–	–	–	–	–	–	MIC ([1]; all the test strains except S. aureus NRS-119 and E. faecium UW 3695): < 4 µg/mL
COc1c(N2C[C@@H]3CCCN[C@@H]3C2)c(F)cc2c(=O)c(C(=O)O)cn(C3CC3)c12 [moxifloxacin]	64 µg/mL (≈ 159 µM)	0.5 µg/mL (≈ 1.25 µM)	0.25 µg/mL (≈ 0.623 µM)	8 µg/mL (≈ 19.9 µM)	8 µg/mL (≈ 19.9 µM)	0.06 µg/mL (≈ 0.149 µM)	0.12 µg/mL (≈ 0.299 µM)	0.25 µg/mL (≈ 0.623 µM)	4 µg/mL (≈ 9.96 µM)	0.5 µg/mL (≈ 1.25 µM)	–	–	–	–	–	–	–	–	–	–	–
CN(C)c1cc(NC(=O)CNC(C)(C)C)c(O)c2c1C[C@H]1C[C@H]3[C@H](N(C)C)C(O)=C(C(N)=O)C(=O)[C@@]3(O)C(O)=C1C2=O [tigecycline]	–	–	–	–	–	–	–	–	–	–	0.125 µg/mL (≈ 0.213 µM)	0.25 µg/mL (≈ 0.427 µM)	0.25 µg/mL (≈ 0.427 µM)	0.0075 µg/mL (≈ 0.0128 µM)	0.5 µg/mL (≈ 0.854 µM)	0.25 µg/mL (≈ 0.427 µM)	0.25 µg/mL (≈ 0.427 µM)	0.25 µg/mL (≈ 0.427 µM)	0.25 µg/mL (≈ 0.427 µM)	0.0075 µg/mL (≈ 0.0128 µM)	MIC [1]: < 0.5 µg/mL; MIC [8]: 2 µg/mL (≈ 3.41 µM); MIC [9]: 2 µg/mL (≈ 3.41 µM); MIC [10]: 4 µg/mL (≈ 6.83 µM); MIC [11]: 2 µg/mL (≈ 3.41 µM); MIC (K. pneumoniae ATCC 13883; ATCC13883): 2 µg/mL (≈ 3.41 µM); MIC [12]: 4 µg/mL (≈ 6.83 µM); MIC (P. aeruginosa ATCC 10145; ATCC10145): 16 µg/mL (≈ 27.3 µM); MIC [13]: 32 µg/mL (≈ 54.6 µM); MIC (P. mirabilis ATCC 9240; ATCC9240): 8 µg/mL (≈ 13.7 µM); MIC [14]: 8 µg/mL (≈ 13.7 µM); MIC (E. coli ATCC 25922; ATCC25922): 0.5 µg/mL (≈ 0.854 µM); MIC (E. cloacae ATCC 13047; ATCC13047): 2 µg/mL (≈ 3.41 µM); MIC [15]: 2 µg/mL (≈ 3.41 µM); MIC [16]: 2 µg/mL (≈ 3.41 µM); MIC (E. faecium DSMZ 2146; DSMZ2146): 0.25 µg/mL (≈ 0.427 µM); MIC [17]: > 2 µg/mL
NC[C@H]1O[C@H](O[C@H]2[C@H](O)[C@@H](O[C@H]3O[C@H](CO)[C@@H](O)[C@H](N)[C@H]3O)[C@H](N)C[C@@H]2N)[C@H](N)C[C@@H]1O [tobramycin]	–	–	–	–	–	–	–	–	–	–	–	–	–	–	–	–	–	–	–	–	MIC ([8]; monosubstance, Ec NRZ00302, read-out: MIC): 64 µg/mL (≈ 137 µM); MIC ([9]; monosubstance, Ec NRZ00401, read-out: MIC): 4 µg/mL (≈ 8.56 µM); MIC ([10]; monosubstance, Ec GNS2601, read-out: MIC): 32 µg/mL (≈ 68.4 µM); MIC ([11]; monosubstance, Kp NRZ00002, read-out: MIC): 16 µg/mL (≈ 34.2 µM); MIC (K. pneumoniae ATCC 13883; monosubstance, Kp ATCC13883, read-out: MIC): 0.125 µg/mL (≈ 0.267 µM); MIC ([12]; monosubstance, Kp NRZ00103, read-out: MIC): 16 µg/mL (≈ 34.2 µM); MIC (P. aeruginosa ATCC 10145; monosubstance, Pa ATCC10145, read-out: MIC): 0.5 µg/mL (≈ 1.07 µM); MIC ([13]; monosubstance, Pa NRZ00425, read-out: MIC): > 128 µg/mL; MIC (P. mirabilis ATCC 9240; monosubstance, Pm ATCC9240, read-out: MIC): 0.5 µg/mL (≈ 1.07 µM); MIC ([14]; monosubstance, Pm NRZ00185, read-out: MIC): 0.125 µg/mL (≈ 0.267 µM); MIC (E. coli ATCC 25922; monosubstance, Ec ATCC25922, read-out: MIC): 1 µg/mL (≈ 2.14 µM); MIC (E. cloacae ATCC 13047; monosubstance, Ecl ATCC13047, read-out: MIC): 0.25 µg/mL (≈ 0.535 µM); MIC ([15]; monosubstance, Kp NRZ00535, read-out: MIC): 8 µg/mL (≈ 17.1 µM); MIC ([16]; monosubstance, Ecl NRZ00239, read-out: MIC): 4 µg/mL (≈ 8.56 µM); MIC ([17]; remainder / remaining / all other test strains, as worded for each agent, read-out: MIC): > 4 µg/mL
CN[C@H](CC(C)C)C(=O)N[C@H]1C(=O)N[C@@H](CC(N)=O)C(=O)N[C@H]2C(=O)N[C@H]3C(=O)N[C@H](C(=O)N[C@H](C(=O)O)c4cc(O)cc(O)c4-c4cc3ccc4O)[C@H](O)c3ccc(c(Cl)c3)Oc3cc2cc(c3O[C@@H]2O[C@H](CO)[C@@H](O)[C@H](O)[C@H]2O[C@H]2C[C@](C)(N)[C@H](O)[C@H](C)O2)Oc2ccc(cc2Cl)[C@H]1O [vancomycin]	–	–	–	–	–	–	–	–	–	–	0.015 µg/mL (≈ 0.0104 µM)	0.25 µg/mL (≈ 0.173 µM)	1 µg/mL (≈ 0.69 µM)	0.25 µg/mL (≈ 0.173 µM)	2 µg/mL (≈ 1.38 µM)	1 µg/mL (≈ 0.69 µM)	0.5 µg/mL (≈ 0.345 µM)	0.25 µg/mL (≈ 0.173 µM)	32 µg/mL (≈ 22.1 µM)	0.25 µg/mL (≈ 0.173 µM)	MIC (E. faecium DSMZ 2146; DSMZ2146): 0.25 µg/mL (≈ 0.173 µM)
